# Experimental data taken from US11427567B2, “Imidazolyl pyrimidinylamine compounds as CDK2 inhibitors” (Incyte Corporation, priority 2019, dated 2022).
# Target: CDK2/Cyclin E1 (Homo sapiens (Human), UniProt P24941)
# Assay: CDK2/Cyclin E1 HTRF enzyme activity assay (Example A)
# Format: biochemical
# Details: 1 mM ATP
# Protocol: Assays were conducted in white 384-well polystyrene plates in a final reaction volume of 8 μL. […] HTRF signals were read after 1 hour at room temperature on a PHERAstar FS plate reader (BMG Labtech). Data was analyzed with IDBS XLFit and GraphPad Prism 5.0 software using a three or four parameter dose response curve to determine IC50 for each compound.
row,Structure (SMILES),IC50 [nM]
1,"CS(=O)(=O)N1CCC(Nc2ncc(C(F)(F)F)c(-c3cn(-c4cccc(F)c4C#N)cn3)n2)CC1 [Example 56, 2-Fluoro-6-(4-(2-((1-(methylsulfonyl)piperidin-4-yl)amino)-5-(trifluoromethyl)pyrimidin-4-yl)-1H-imidazol-1-yl)benzonitrile]",≤ 50
2,"CS(=O)(=O)N1CCC(Nc2ncc(C(F)(F)F)c(-c3cn(-c4cc(F)ccc4C#N)cn3)n2)CC1 [Example 57, 4-Fluoro-2-(4-(2-((1-(methylsulfonyl)piperidin-4-yl)amino)-5-(trifluoromethyl)pyrimidin-4-yl)-1H-imidazol-1-yl)benzonitrile]",≤ 50
3,"CS(=O)(=O)N1CCC(Nc2ncc(C(F)(F)F)c(-c3cn(-c4cccc(C#N)c4Cl)cn3)n2)CC1 [Example 58, 2-Chloro-3-(4-(2-((1-(methylsulfonyl)piperidin-4-yl)amino)-5-(trifluoromethyl)pyrimidin-4-yl)-1H-imidazol-1-yl)benzonitrile]",≤ 50
4,"CS(=O)(=O)N1CCC(Nc2ncc(C(F)(F)F)c(-c3cn(-c4ccc(C#N)cc4C#N)cn3)n2)CC1 [Example 59, 4-(4-(2-((1-(Methylsulfonyl)piperidin-4-yl)amino)-5-(trifluoromethyl)pyrimidin-4-yl)-1H-imidazol-1-yl)isophthalonitrile]",≤ 50
5,"CS(=O)(=O)N1CCC(Nc2ncc(C(F)(F)F)c(-c3cn(-c4cccc(Cl)c4Cl)cn3)n2)CC1 [Example 60, 4-(1-(2,3-Dichlorophenyl)-1H-imidazol-4-yl)-N-(1-(methylsulfonyl)piperidin-4-yl)-5-(trifluoromethyl)pyrimidin-2-amine]",≤ 50
6,"Cc1cccc(-n2cnc(-c3nc(NC4CCN(S(C)(=O)=O)CC4)ncc3C(F)(F)F)c2)c1C#N [Example 61, 2-Methyl-6-(4-(2-((1-(methylsulfonyl)piperidin-4-yl)amino)-5-(trifluoromethyl)pyrimidin-4-yl)-1H-imidazol-1-yl)benzonitrile]",≤ 50
7,"Cc1ccc(-n2cnc(-c3nc(NC4CCN(S(C)(=O)=O)CC4)ncc3C(F)(F)F)c2)c(C#N)c1Cl [Example 62, 2-Chloro-3-methyl-6-(4-(2-((1-(methylsulfonyl)piperidin-4-yl)amino)-5-(trifluoromethyl)pyrimidin-4-yl)-1H-imidazol-1-yl)benzonitrile]",≤ 50
8,"CS(=O)(=O)N1CCC(Nc2ncc(C(F)(F)F)c(-c3cn(-c4cccc(C#N)c4Br)cn3)n2)CC1 [Example 63, 2-Bromo-3-(4-(2-((1-(methylsulfonyl)piperidin-4-yl)amino)-5-(trifluoromethyl)pyrimidin-4-yl)-1H-imidazol-1-yl)benzonitrile]",≤ 50
9,"CS(=O)(=O)N1CCC(Nc2ncc(C(F)(F)F)c(-c3cn(-c4ccc(C(F)(F)F)nc4C#N)cn3)n2)CC1 [Example 64, 3-(4-(2-((1-(Methylsulfonyl)piperidin-4-yl)amino)-5-(trifluoromethyl)pyrimidin-4-yl)-1H-imidazol-1-yl)-6-(trifluoromethyl)picolinonitrile]",≤ 50
10,"CS(=O)(=O)N1CCC(Nc2ncc(C(F)(F)F)c(-c3cn(-c4cccc(F)c4Cl)cn3)n2)CC1 [Example 65, 4-(1-(2-Chloro-3-fluorophenyl)-1H-imidazol-4-yl)-N-(1-(methylsulfonyl)piperidin-4-yl)-5-(trifluoromethyl)pyrimidin-2-amine]",≤ 50
11,"CS(=O)(=O)N1CCC(Nc2ncc(C(F)(F)F)c(-c3cn(-c4cnccc4C(F)(F)F)cn3)n2)CC1 [Example 66, N-(1-(Methylsulfonyl)piperidin-4-yl)-5-(trifluoromethyl)-4-(1-(4-(trifluoromethyl)pyridin-3-yl)-1H-imidazol-4-yl)pyrimidin-2-amine]",≤ 50
12,"CS(=O)(=O)N1CCC(Nc2ncc(C(F)(F)F)c(-c3cn(-c4cnccc4C#N)cn3)n2)CC1 [Example 67, 3-(4-(2-((1-(Methylsulfonyl)piperidin-4-yl)amino)-5-(trifluoromethyl)pyrimidin-4-yl)-1H-imidazol-1-yl)isonicotinonitrile]",≤ 50
13,"CS(=O)(=O)N1CC[C@H](Nc2ncc(C(F)(F)F)c(-c3cn(-c4ccc(C(F)(F)F)cc4C#N)cn3)n2)[C@H](F)C1 [Example 68, 2-(4-(2-(((3R,4S)-3-Fluoro-1-(methylsulfonyl)piperidin-4-yl)amino)-5-(trifluoromethyl)pyrimidin-4-yl)-1H-imidazol-1-yl)-5-(trifluoromethyl)benzonitrile]",≤ 50
14,"CS(=O)(=O)N1CC[C@H](Nc2ncc(C(F)(F)F)c(-c3cn(-c4cccc(C#N)c4C(F)(F)F)cn3)n2)[C@H](F)C1 [Example 69, 3-(4-(2-(((3R,4S)-3-Fluoro-1-(methylsulfonyl)piperidin-4-yl)amino)-5-(trifluoromethyl)pyrimidin-4-yl)-1H-imidazol-1-yl)-2-(trifluoromethyl)benzonitrile]",≤ 50
15,"COc1ccc(-n2cnc(-c3nc(NC4CCN(S(C)(=O)=O)CC4)ncc3C(F)(F)F)c2)c(C(F)(F)F)n1 [Example 70, 4-(1-(6-Methoxy-2-(trifluoromethyl)pyridin-3-yl)-1H-imidazol-4-yl)-N-(1-(methylsulfonyl)piperidin-4-yl)-5-(trifluoromethyl)pyrimidin-2-amine]",≤ 50
16,"CC(C)(O)CCOc1ccc(-n2cnc(-c3nc(NC4CCN(S(C)(=O)=O)CC4)ncc3C(F)(F)F)c2)c(C(F)(F)F)n1 [Example 71, 2-Methyl-4-((5-(4-(2-((1-(methylsulfonyl)piperidin-4-yl)amino)-5-(trifluoromethyl)pyrimidin-4-yl)-1H-imidazol-1-yl)-6-(trifluoromethyl)pyridin-2-yl)oxy)butan-2-ol]",≤ 50
17,"CN(C)CCOc1ccc(-n2cnc(-c3nc(NC4CCN(S(C)(=O)=O)CC4)ncc3C(F)(F)F)c2)c(C(F)(F)F)n1 [Example 72, 4-(1-(6-(2-(Dimethylamino)ethoxy)-2-(trifluoromethyl)pyridin-3-yl)-1H-imidazol-4-yl)-N-(1-(methylsulfonyl)piperidin-4-yl)-5-(trifluoromethyl)pyrimidin-2-amine]",≤ 50
18,"CC(CN(C)C)Oc1ccc(-n2cnc(-c3nc(NC4CCN(S(C)(=O)=O)CC4)ncc3C(F)(F)F)c2)c(C(F)(F)F)n1 (stereo not drawn) [Example 73, 4-(1-(6-((1-(Dimethylamino)propan-2-yl)oxy)-2-(trifluoromethyl)pyridin-3-yl)-1H-imidazol-4-yl)-N-(1-(methylsulfonyl)piperidin-4-yl)-5-(trifluoromethyl)pyrimidin-2-amine]",≤ 50
19,"CC(C#N)Oc1ccc(-n2cnc(-c3nc(NC4CCN(S(C)(=O)=O)CC4)ncc3C(F)(F)F)c2)c(C(F)(F)F)n1 (stereo not drawn) [Example 74, 2-((5-(4-(2-((1-(Methylsulfonyl)piperidin-4-yl)amino)-5-(trifluoromethyl)pyrimidin-4-yl)-1H-imidazol-1-yl)-6-(trifluoromethyl)pyridin-2-yl)oxy)propanenitrile]",≤ 50
20,"COc1ccc(-n2cnc(-c3nc(NC4CCN(S(C)(=O)=O)CC4)ncc3C(F)(F)F)c2)c(C(F)F)n1 [Example 75, 4-(1-(2-(Difluoromethyl)-6-methoxypyridin-3-yl)-1H-imidazol-4-yl)-N-(1-(methylsulfonyl)piperidin-4-yl)-5-(trifluoromethyl)pyrimidin-2-amine]",≤ 50
21,"CCN(C)CCOc1ccc(-n2cnc(-c3nc(NC4CCN(S(C)(=O)=O)CC4)ncc3C(F)(F)F)c2)c(C#N)n1 [Example 76, 6-(2-(Ethyl(methyl)amino)ethoxy)-3-(4-(2-((1-(methylsulfonyl)piperidin-4-yl)amino)-5-(trifluoromethyl)pyrimidin-4-yl)-1H-imidazol-1-yl)picolinonitrile]",≤ 50
22,"CN(C)Cc1cccc(-n2cnc(-c3nc(NC4CCN(S(C)(=O)=O)CC4)ncc3C(F)(F)F)c2)c1Cl [Example 77, 4-(1-(2-Chloro-3-((dimethylamino)methyl)phenyl)-1H-imidazol-4-yl)-N-(1-(methylsulfonyl)piperidin-4-yl)-5-(trifluoromethyl)pyrimidin-2-amine]",≤ 50
23,"CN1CCN(Cc2cccc(-n3cnc(-c4nc(NC5CCN(S(C)(=O)=O)CC5)ncc4C(F)(F)F)c3)c2Cl)CC1 [Example 78, 4-(1-(2-Chloro-3-((4-methylpiperazin-1-yl)methyl)phenyl)-1H-imidazol-4-yl)-N-(1-(methylsulfonyl)piperidin-4-yl)-5-(trifluoromethyl)pyrimidin-2-amine]",≤ 50
24,"CC1(NCc2cccc(-n3cnc(-c4nc(NC5CCN(S(C)(=O)=O)CC5)ncc4C(F)(F)F)c3)c2Cl)CCOCC1 [Example 79, 4-(1-(2-Chloro-3-(((4-methyltetrahydro-2H-pyran-4-yl)amino)methyl)phenyl)-1H-imidazol-4-yl)-N-(1-(methylsulfonyl)piperidin-4-yl)-5-(trifluoromethyl)pyrimidin-2-amine]",≤ 50
25,"CNCc1cccc(-n2cnc(-c3nc(NC4CCN(S(C)(=O)=O)CC4)ncc3C(F)(F)F)c2)c1Cl [Example 80, 4-(1-(2-Chloro-3-((methylamino)methyl)phenyl)-1H-imidazol-4-yl)-N-(1-(methylsulfonyl)piperidin-4-yl)-5-(trifluoromethyl)pyrimidin-2-amine]",≤ 50
26,"CS(=O)(=O)N1CCC(Nc2ncc(C(F)(F)F)c(-c3cn(-c4cccc(CNC5CC5)c4Cl)cn3)n2)CC1 [Example 81, 4-(1-(2-Chloro-3-((cyclopropylamino)methyl)phenyl)-1H-imidazol-4-yl)-N-(1-(methylsulfonyl)piperidin-4-yl)-5-(trifluoromethyl)pyrimidin-2-amine]",≤ 50
27,"CS(=O)(=O)N1CCC(Nc2ncc(C(F)(F)F)c(-c3cn(-c4cccc(CN5CC(O)C5)c4Cl)cn3)n2)CC1 [Example 82, 1-(2-Chloro-3-(4-(2-((1-(methylsulfonyl)piperidin-4-yl)amino)-5-(trifluoromethyl)pyrimidin-4-yl)-1H-imidazol-1-yl)benzyl)azetidin-3-ol]",≤ 50
